Experimental data from patent US8569298B2, “Pyridine compounds” (Astrazeneca AB, priority 2008, dated 2013).

Molecular target: T1, FAK enzyme (6 His tagged kinase domain, GenBank NP—722560) (Homo sapiens, UniProt Q05397)
T1 construct: 6 His; made in house; host or cells: insect cell culture infected with baculovirus
Assay: In vitro enzyme assay (a): sandwich ELISA of FAK tyrosine kinase activity on polyGAT peptide, TMB colorimetric endpoint
Type: biochemical
Settings: in vitro Enzyme Assay test (a); ATP at Km; geometric mean of n > 1 measurements, values marked * tested once
Summary of the method: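 Recombinant His-tagged FAK kinase domain (baculovirus/insect cells) phosphorylated plate-coated polyGAT with ATP at Km, MgCl2/MnCl2, HEPES pH 7.4, 25 min at room temperature before EDTA stop. Phosphotyrosine detected by HRP-4G10 antibody and TMB absorbance at 450 nm; IC50 from 12-point curve anchored to DMSO and staurosporine controls.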

T1 sequence (Q05397 422-680 limits assumed): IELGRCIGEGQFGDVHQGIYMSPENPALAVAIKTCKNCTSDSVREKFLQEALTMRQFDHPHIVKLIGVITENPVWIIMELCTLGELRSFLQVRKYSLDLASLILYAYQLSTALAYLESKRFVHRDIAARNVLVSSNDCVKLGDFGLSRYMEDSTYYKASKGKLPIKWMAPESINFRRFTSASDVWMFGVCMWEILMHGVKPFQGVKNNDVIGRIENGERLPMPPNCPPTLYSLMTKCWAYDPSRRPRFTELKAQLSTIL

| Compound | IC50 |
| --- | --- |
| CNC(=O)c1ccccc1Nc1cc(Nc2cn(C)nc2C(=O)NC)ncc1C(F)(F)F [Example 12.07, N,1-dimethyl-4-[[4-[[2-(methylcarbamoyl)phenyl]amino]-5-(trifluoromethyl)-2-pyridyl]amino]pyrazole-3-carboxamide] | 171 nM |
| CNC(=O)c1ccccc1Nc1cc(Nc2cn(C)nc2C(=O)N(C)C)ncc1C(F)(F)F [Example 12.08, N,N,1-trimethyl-4-[[4-[[2-(methylcarbamoyl)phenyl]amino]-5-(trifluoromethyl)-2-pyridyl]amino]pyrazole-3-carboxamide] | 482 nM |
| CNC(=O)c1ccccc1Nc1cc(Nc2c[nH]nc2C)ncc1C(F)(F)F [Example 12.09, N-methyl-2-[[2-[(3-methyl-1H-pyrazol-4-yl)amino]-5-(trifluoromethyl)-4-pyridyl]amino]benzamide] | 3 nM |
| CNC(=O)c1ccccc1Nc1cc(Nc2cn(C)nc2COC)ncc1C(F)(F)F [Example 12.10, 2-[[2-[[3-(methoxymethyl)-1-methyl-pyrazol-4-yl]amino]-5-(trifluoromethyl)-4-pyridyl]amino]-N-methyl-benzamide] | 10 nM |
| CNC(=O)c1ccccc1Nc1cc(Nc2cn(C)nc2C#N)ncc1C(F)(F)F [Example 12.11, 2-[[2-[(3-cyano-1-methyl-pyrazol-4-yl)amino]-5-(trifluoromethyl)-4-pyridyl]amino]-N-methyl-benzamide] | 15 nM |
| CNC(=O)c1ccccc1Nc1cc(Nc2cn(C)nc2OC)ncc1C(F)(F)F [Example 12.12, 2-[[2-[(3-methoxy-1-methyl-pyrazol-4-yl)amino]-5-(trifluoromethyl)-4-pyridyl]amino]-N-methyl-benzamide] | 3 nM |
| Cc1nn(C(C)C)cc1Nc1cc(Nc2cccc3c2C(=O)N(C)CC3)c(Cl)cn1 [Example 13.01, 8-[[5-chloro-2-[(1-isopropyl-3-methyl-pyrazol-4-yl)amino]-4-pyridyl]amino]-2-methyl-3,4-dihydroisoquinolin-1-one] | 13 nM |
| CNC(=O)c1ccccc1Nc1cc(Nc2cn(C(C)C)nc2C)ncc1C(F)(F)F [Example 13.02, 2-[[2-[(1-isopropyl-3-methyl-pyrazol-4-yl)amino]-5-(trifluoromethyl)-4-pyridyl]amino]-N-methyl-benzamide] | 21 nM |
| CNC(=O)c1ccccc1Nc1cc(Nc2cn(C(F)F)nc2C)ncc1C(F)(F)F [Example 13.03, 2-[[2-[[1-(difluoromethyl)-3-methyl-pyrazol-4-yl]amino]-5-(trifluoromethyl)-4-pyridyl]amino]-N-methyl-benzamide] | 50 nM |
| Cc1nn(C(F)F)cc1Nc1cc(Nc2cccc3c2C(=O)N(C)CC3)c(Cl)cn1 [Example 13.04, 8-[[5-chloro-2-[[1-(difluoromethyl)-3-methyl-pyrazol-4-yl]amino]-4-pyridyl]amino]-2-methyl-3,4-dihydroisoquinolin-1-one] | 23 nM |
| Cc1nn(CCO)cc1Nc1cc(Nc2cccc3c2C(=O)N(C)CC3)c(Cl)cn1 [Example 13.05, 8-[[5-chloro-2-[[1-(2-hydroxyethyl)-3-methyl-pyrazol-4-yl]amino]-4-pyridyl]amino]-2-methyl-3,4-dihydroisoquinolin-1-one] | 4 nM |
| CNC(=O)c1ccccc1Nc1cc(Nc2cn(CCO)nc2C)ncc1C(F)(F)F [Example 13.06, 2-[[2-[[1-(2-hydroxyethyl)-3-methyl-pyrazol-4-yl]amino]-5-(trifluoromethyl)-4-pyridyl]amino]-N-methyl-benzamide] | 6 nM |

The remaining lines, values ahead:

| IC50 | Compound |
| --- | --- |
| 4 nM | CONC(=O)c1c(Nc2cc(Nc3cn(C)nc3C)ncc2C(F)(F)F)cccc1OC [Example 14.01, 2-[[2-[(1,3-dimethylpyrazol-4-yl)amino]-5-(trifluoromethyl)-4-pyridyl]amino]-N,6-dimethoxy-benzamide] |
| 2 nM | CONC(=O)c1ccccc1Nc1cc(Nc2cc(C)nn2C)ncc1C(F)(F)F [Example 14.02, 2-[[2-[(2,5-dimethylpyrazol-3-yl)amino]-5-(trifluoromethyl)-4-pyridyl]amino]-N-methoxy-benzamide] |
| 6 nM | CONC(=O)c1c(Nc2cc(Nc3cc(C)nn3C)ncc2C(F)(F)F)cccc1OC [Example 14.03, 2-[[2-[(2,5-dimethylpyrazol-3-yl)amino]-5-(trifluoromethyl)-4-pyridyl]amino]-N,6-dimethoxy-benzamide] |
| 4 nM | CONC(=O)c1ccc(F)cc1Nc1cc(Nc2cn(C)nc2C)ncc1C(F)(F)F [Example 15.01, 2-[[2-[(1,3-dimethylpyrazol-4-yl)amino]-5-(trifluoromethyl)-4-pyridyl]amino]-4-fluoro-N-methoxy-benzamide] |
| 3 nM | CONC(=O)c1ccc(F)cc1Nc1cc(Nc2cc(C)nn2C)ncc1C(F)(F)F [Example 15.02, 2-[[2-[(2,5-dimethylpyrazol-3-yl)amino]-5-(trifluoromethyl)-4-pyridyl]amino]-4-fluoro-N-methoxy-benzamide] |
| 6 nM | CNC(=O)c1ccc(F)cc1Nc1cc(Nc2cc(C)nn2C)ncc1C(F)(F)F [Example 15.03, 2-[[2-[(2,5-dimethylpyrazol-3-yl)amino]-5-(trifluoromethyl)-4-pyridyl]amino]-4-fluoro-N-methyl-benzamide] |
| 24 nM | CNC(=O)c1c(Nc2cc(Nc3c(C)nn(C)c3C)ncc2C(F)(F)F)cccc1OC [Example 15.04, 2-Methoxy-N-methyl-6-[[5-(trifluoromethyl)-2-[(1,3,5-trimethylpyrazol-4-yl)amino]-4-pyridyl]amino]benzamide] |
| 10 nM | CONC(=O)c1c(Nc2cc(Nc3c(C)nn(C)c3C)ncc2C(F)(F)F)cccc1OC [Example 15.05, N,2-dimethoxy-6-[[5-(trifluoromethyl)-2-[(1,3,5-trimethylpyrazol-4-yl)amino]-4-pyridyl]amino]benzamide] |
| 5 nM | CONC(=O)c1ccccc1Nc1cc(Nc2c(C)nn(C)c2C)ncc1C(F)(F)F [Example 15.06, N-methoxy-2-[[5-(trifluoromethyl)-2-[(1,3,5-trimethylpyrazol-4-yl)amino]-4-pyridyl]amino]benzamide] |
| 113 nM | CCONC(=O)c1ccccc1Nc1cc(Nc2cc(C)nn2C)ncc1C(F)(F)F [Example 15.07, 2-[[2-[(2,5-dimethylpyrazol-3-yl)amino]-5-(trifluoromethyl)-4-pyridyl]amino]-N-ethoxy-benzamide] |
| 620 nM | Cc1cc(Nc2cc(Nc3ccccc3C(=O)NOCCO)c(C(F)(F)F)cn2)n(C)n1 [Example 15.08, 2-[[2-[(2,5-dimethylpyrazol-3-yl)amino]-5-(trifluoromethyl)-4-pyridyl]amino]-N-(2-hydroxyethoxy)benzamide] |
| 12 nM | CONC(=O)c1cc(F)ccc1Nc1cc(Nc2cc(C)nn2C)ncc1C(F)(F)F [Example 16.01, 2-[[2-[(2,5-dimethylpyrazol-3-yl)amino]-5-(trifluoromethyl)-4-pyridyl]amino]-5-fluoro-N-methoxy-benzamide] |
| 6 nM | CONC(=O)c1cc(F)ccc1Nc1cc(Nc2cn(C)nc2C)ncc1C(F)(F)F [Example 16.02, 2-[[2-[(1,3-dimethylpyrazol-4-yl)amino]-5-(trifluoromethyl)-4-pyridyl]amino]-5-fluoro-N-methoxy-benzamide] |
